Reference: PubChem BioAssay (NCI)
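Dose response: 5 concentrations. Exposure: 48 h. Format: 96-well plates. Endpoint: linear interpolation; highest concentration if not reached. TGI denotes the concentration required for complete inhibition of growth.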

What was measured:
Assay in all cases: inhibition of tumour cell growth, NCI panel, 48 h
[1] = tested on: SK-MEL-2 melanoma
[2] = tested on: NCI-H23 lung
[3] = tested on: U251 CNS
[4] = tested on: NCI-H226 lung
[5] = tested on: OVCAR-5 ovarian
[6] = tested on: IGROV1 ovarian
[7] = tested on: SF-268 CNS
[8] = tested on: TK-10 renal
[9] = tested on: OVCAR-3 ovarian
[10] = tested on: HL-60(TB) leukemia
[11] = tested on: SF-539 CNS
[12] = tested on: UACC-62 melanoma
[13] = tested on: NCI/ADR-RES ovarian
[14] = tested on: MOLT-4 leukemia
[15] = tested on: M14 melanoma
[16] = tested on: NCI-H460 lung

| SMILES | TGI [1] [µM] | TGI [2] [µM] | TGI [3] [µM] | TGI [4] [µM] | TGI [5] [µM] | TGI [6] [µM] | TGI [7] [µM] | TGI [8] [µM] | TGI [9] [µM] | TGI [10] [µM] | TGI [11] [µM] | TGI [12] [µM] | TGI [13] [µM] | TGI [14] [µM] | TGI [15] [µM] | TGI [16] [µM] |
| --- | --- | --- | --- | --- | --- | --- | --- | --- | --- | --- | --- | --- | --- | --- | --- | --- |
| C=C1CC[C@](C)(O)[C@@]2(C)CC[C@H]3C(=C(C)C)C(=O)C[C@]3(C)C[C@H]12 | > 50 | > 50 | > 50 | > 50 | > 50 | > 50 | > 50 | > 50 | > 50 | 18.9 | > 50 | > 50 | > 50 | 31.6 | > 50 |  |
| COC(=O)C(Cc1ccccc1)NC(=O)CSc1nnc(COc2ccc(Cl)cc2)n1-c1ccccc1 (centres undefined) | 33.2 | 53.3 | 32.9 | > 100 | 54.6 | > 100 | > 100 | 40 |  | 46.6 | 51.3 | 27.9 | 55.2 | > 100 | 35.1 | 35.7 |
| Brc1ccc(C2=NCSC(c3ccc(Br)cc3)=N2)cc1 | 32.5 | > 100 | 53.3 | > 100 | > 100 | > 100 | > 100 | 53.8 |  | 34.8 | 99.2 | 29.8 | > 100 | 48.6 | > 100 | 53.8 |
| COc1ccc(/C=C/C(=O)c2cc(OC)cc(OC)c2)cc1 | 42.3 | 8.53 | 7.41 | 31.6 | 18.1 | 25.7 | 16.4 | 23.9 | 15.1 | 9.73 | 7.93 | 16.9 | 9.02 | > 26.6 | 6.83 | 14.4 |
| Cc1ccc(-c2n[nH]c(=O)n2/N=C\c2ccccc2O)cc1 | > 100 | > 100 | > 100 | > 100 | > 100 | > 100 | > 100 | > 100 | > 100 | > 100 | > 100 |  | > 100 | > 100 | > 100 | > 100 |
| COc1cc2nc(-c3cccs3)nc(Nc3cccc([N+](=O)[O-])c3)c2cc1OC | 39.8 | 28.9 | 32.4 | 58.7 | 41.4 | 32.2 | 43.6 | 37 | 36.6 | > 100 | 34 | 31.1 | 46.9 | > 100 | 33.5 | 77.1 |
| COc1cccc(OC)c1C1ON=C(c2ccccc2)N1C12CC3CC(CC(C3)C1)C2 (centres undefined) | > 100 | > 100 | > 100 | > 100 | > 100 | > 100 | > 100 | > 100 | > 100 | 4.63 | > 100 | > 100 | > 100 | > 100 | > 100 | > 100 |
| Cc1ccc(S(=O)(=O)NNC(=O)Nc2cccc(C(F)(F)F)c2)cc1 | > 100 | > 100 | > 100 | > 100 | > 100 | > 100 | > 100 | > 100 |  | > 100 | > 100 | > 100 | > 100 | > 100 | > 100 | > 100 |
| N#CC(C#N)=c1c(=O)c2c3ccccc3cc3cccc1c32 | > 100 | > 100 | > 100 | > 100 | > 100 | > 100 | > 100 |  | > 100 | > 100 |  | > 100 | > 100 | > 100 | > 100 | > 100 |
| CC(C)(C)C(=O)/C=C(\OB(F)F)C(C)(C)C | > 100 | > 100 | > 100 | > 100 | > 100 | > 100 | > 100 | > 100 | > 100 | > 100 | > 100 |  | > 100 | > 100 | > 100 | > 100 |
| CC(C)OC(=O)NCCn1cc(-c2ccccc2)nn1 | > 100 | > 100 | > 100 | > 100 | > 100 |  | > 100 | > 100 |  | > 100 | > 100 |  | > 100 | > 100 | > 100 | > 100 |
| CC(C#N)(c1ccccc1)N(CCc1ccccc1)C(=O)Oc1ccccc1 (centres undefined) | > 100 | > 100 | > 100 | > 100 | > 100 | > 100 | > 100 | > 100 | > 100 | > 100 | > 100 | > 100 | > 100 | > 100 | > 100 |  |
| CC(C)[Si](OC12CCC(CC1O)CC2CO)(C(C)C)C(C)C (centres undefined) | 29.3 | 25.4 | 28 | 33.6 | 31.2 |  | 27.9 | 27.5 | 27.6 | 6.73 | 38 | 28.9 | 28.3 | 44.6 | 28.4 | 25.2 |
| COc1ccc(N2C(=O)c3cc([N+](=O)[O-])cnc3S2(=O)=O)cc1 | > 100 | > 100 | > 100 | > 100 | > 100 | > 100 | > 100 | > 100 | > 100 | > 100 |  | > 100 | > 100 | > 100 |  | > 100 |
| CN1CCN(Cn2nc(COc3ccccc3Cl)n(/N=C/c3ccc(-c4ccc(Cl)cc4Cl)o3)c2=S)CC1 | 45.4 | 44.8 | 34.6 | > 100 | > 100 | > 100 | > 100 | 62.4 | 47.5 | 55.1 | 62.6 |  | 61.9 | 62.1 | 81.7 | 51.6 |
